Data as given in patent US11450448B2, “Use of a linear octafluorobutene as a dielectric compound in an environmentally safe dielectric-insulation or arc-extinction fluid” (HITACHI ENERGY SWITZERLAND AG, priority 2016, dated 2022).

Legend:
[1] = Decomposition tests: accelerated ageing with GIS materials; type: physicochemical; conditions: aged at 100° C. with Cu/Al plates, EPDM sealings, zeolites, SiO2, paints, grease, nitrile-butadiene rubber; analysed after 8 weeks of exposure
Protocol: In order to assess the material compatibility of octafluoro-2-butene towards material typically used in a GIS, the following components were aged at accelerated conditions (at 100° C.) with octafluoro-2-butene gas:
Both the gas as well as the components exposed to the gas were analysed after 8 weeks of exposure.

rats = assay: median lethal concentration (LC50) measured on rats; type: in vivo; conditions: compared with C4N and C5K
Description: Specifically, the term “environmentally safe” also means that the dielectric-insulation or arc-extinction fluid has a relatively low toxicity level. More specifically, the median lethal dose (LC50; lethal concentration 50%; measured on rats) of the dielectric compound used in the environmentally safe dielectric-insulation or arc-extinction fluid is higher than 4′000 ppm, preferably higher than 5′000 ppm and more preferably higher than 6′000 ppm. Thus, the dielectric compound used according to the present invention ranges within the same toxicity class as previously mentioned C4N (having a much higher GWP than the dielectric compound used according to the present invention) and C5K (having a much higher boiling point than the dielectric compound used according to the present invention).

Molecule	decomposition of the gas [1]	toxicity class (rats)
FC(=C(F)C(F)(F)F)C(F)(F)F [octafluoro-2-butene]	For none of the tests, a decomposition of the octafluoro-2-butene was determined	
linear octafluorobutene [linear octafluorobutenes]		ranges within the same toxicity class as for example heptafluoroisobutyronitrile (C4N) and 1,1,1,3,4,4,4-heptafluoro-3-(trifluoromethyl)-butan-2-one (C5K)
